Patent US8247211B2, “Glycopeptide antibiotics” (American Cyanamid Company, priority 2001, dated 2012)
In brackets after ≈: the same amount, converted by molar mass.

Columns and labels:
Experiment in all cases: In vitro antibacterial evaluation: minimum inhibitory concentration (MIC), broth dilution method
Type in all cases: cell-based
Staphylococcus sp. = conditions: for MIC Coagulase Negative Staphylococcus (GC 4537): strain GC 4537; for MIC Coagulase Negative Staphylococcus (GC 4538): strain GC 4538; for MIC Coagulase Negative Staphylococcus (GC 4547): strain GC 4547; for MIC Staphylococcus aureus-SMITH (GC 4536): strain SMITH GC 4536
Description: (§1) The minimum inhibitory concentration (MIC), the lowest concentration of the antibiotic which inhibits growth of the test organism, is determined by the broth dilution method using Muller-Hinton II […] (Baltimore Biological Laboratories) following the recommendations of the National Committee for Clinical Laboratory Standards [Methods for dilution antimicrobial susceptibility tests for bacteria that grow aerobically, approved standard M7-A2, National Committee for Clinical Laboratory Standards, Villanova, Pa].
(§2) An inoculum level of 5×10^5 CFU/mL, and a range of antibiotic concentrations (64-0.06 μg/mL) is used. […] The test organisms include a spectrum of Gram-positive bacteria comprised of Staphylococcus sp., Streptococcus sp. and Enterococcus sp. These organisms include recent clinical isolates that are resistant to methicillin, penicillin and/or vancomycin.

Escherichia coli = conditions: for MIC Escherichia coli (GC 4559): strain GC 4559; for MIC Escherichia coli (GC 4560): strain GC 4560
Description: as §1, §2

Enterococcus sp. = conditions: for MIC Enterococcus faecalis (ATCC 29212): strain ATCC 29212; for MIC Enterococcus faecalis (GC 4552): strain GC 4552
Description: as §1, §2

[1] = broth dilution, 18 hours at 35° C.
[2] = Enterococcus faecalis (GC 2242), broth dilution, 18 hours at 35° C.

| Structure (SMILES) | MIC Staphylococcus aureus (ATCC 29213) (Staphylococcus sp.; [1]) [µg/mL] | MIC Staphylococcus aureus (GC 1131) (Staphylococcus sp.; [1]) [µg/mL] | MIC Staphylococcus aureus (GC 4535) (Staphylococcus sp.; [1]) [µg/mL] | MIC Staphylococcus aureus SMITH (GC 4536) (Staphylococcus sp.; [1]) [µg/mL] | MIC Coagulase Negative Staphylococcus (GC 4537) (Staphylococcus sp.) [µg/mL] | MIC Coagulase Negative Staphylococcus (GC 4537) (Staphylococcus sp.; [1]) [µg/mL] | MIC Coagulase Negative Staphylococcus (GC 4538) (Staphylococcus sp.) [µg/mL] | MIC Coagulase Negative Staphylococcus (GC 4538) (Staphylococcus sp.; [1]) [µg/mL] | MIC Coagulase Negative Staphylococcus (GC 4547) (Staphylococcus sp.) [µg/mL] | MIC Coagulase Negative Staphylococcus (GC 4547) (Staphylococcus sp.; [1]) [µg/mL] | MIC Staphylococcus aureus-SMITH (GC 4536) (Staphylococcus sp.; [1]) [µg/mL] | MIC Escherichia coli (GC 4559) (Escherichia coli) [µg/mL] | MIC Escherichia coli (GC 4560) (Escherichia coli) [µg/mL] | MIC Enterococcus faecalis (ATCC 29212) (Enterococcus sp.) [µg/mL] | MIC Enterococcus faecalis (GC 2242) (Enterococcus sp.; strain GC 2242) [µg/mL] | MIC Enterococcus faecalis (GC 4552) (Enterococcus sp.) [µg/mL] | MIC Enterococcus faecalis (GC 2242) (Enterococcus sp.; [2]) [µg/mL] |
| --- | --- | --- | --- | --- | --- | --- | --- | --- | --- | --- | --- | --- | --- | --- | --- | --- | --- |
| CCCCCCC(=O)OCC1OC(N2C(=N)NCC2C(O)C2NC(=O)C(C(O)C3CNC(=N)N3)NC(=O)C(Cc3ccc(OC4OC(CO)C(OC5OC(CO)C(O)C(O)C5O)C(O)C4O)cc3)NC(=O)C(C(C)c3ccccc3)NC(=O)CNC(=O)C(CO)NC2=O)C(O)C(O)C1O (centres unmarked) [Example 97] | >64 | >64 | >64 | >64 | >64 | >64 | >64 | >64 | >64 | >64 | >64 | >64 | 2 (≈ 1.42 µM) | >64 | >64 | >64 |  |
| CCCCCC(=O)OCC1OC(Oc2ccc(CC3NC(=O)C(C(C)c4ccccc4)NC(=O)CNC(=O)C(CO)NC(=O)C(C(O)C4CNC(=N)N4C4OC(CO)C(O)C(O)C4O)NC(=O)C(C(O)C4CNC(=N)N4)NC3=O)cc2)C(O)C(O)C1OC1OC(CO)C(O)C(O)C1O (stereo not drawn) [Example 95a, Cyclo[glycyl-β-methylphenylalanyl-O-(6-O-hexanoyl-4-O-hexopyranosylhexopyranosyl)-tyrosyl-3-(2-iminoimidazolidin-4-yl)seryl-3-(3-hexopyranosyl-2-iminoimidazolidin-4-yl)-serylseryl]] | 4 (≈ 2.87 µM) | 4 (≈ 2.87 µM) | 8 (≈ 5.74 µM) | 4 (≈ 2.87 µM) | 8 (≈ 5.74 µM) |  | 4 (≈ 2.87 µM) |  | 4 (≈ 2.87 µM) |  | 4 (≈ 2.87 µM) | >64 | 2 (≈ 1.44 µM) | 32 (≈ 23 µM) | 16 (≈ 11.5 µM) | 32 (≈ 23 µM) | 16 (≈ 11.5 µM) |
| CCCCCC(=O)OCC1OC(N2C(=N)NCC2C(O)C2NC(=O)C(C(O)C3CNC(=N)N3)NC(=O)C(Cc3ccc(OC4OC(CO)C(OC5OC(CO)C(O)C(O)C5O)C(O)C4O)cc3)NC(=O)C(C(C)c3ccccc3)NC(=O)CNC(=O)C(CO)NC2=O)C(O)C(O)C1O (centres unmarked) [Example 95] | >64 | >64 | >64 | >64 | >64 |  | >64 |  | >64 |  | >64 | >64 | 8 (≈ 5.74 µM) | >64 | >64 | >64 | >64 |
